Measured values from paper PMC3742231 (International Journal of Molecular Sciences, 2013).

What was measured:
Experiment in all cases: biochemical
CYP2B6 = molecular target: T1, CYP2B6 (Homo sapiens, UniProt P20813)
T1 sequence (P20813 1-491): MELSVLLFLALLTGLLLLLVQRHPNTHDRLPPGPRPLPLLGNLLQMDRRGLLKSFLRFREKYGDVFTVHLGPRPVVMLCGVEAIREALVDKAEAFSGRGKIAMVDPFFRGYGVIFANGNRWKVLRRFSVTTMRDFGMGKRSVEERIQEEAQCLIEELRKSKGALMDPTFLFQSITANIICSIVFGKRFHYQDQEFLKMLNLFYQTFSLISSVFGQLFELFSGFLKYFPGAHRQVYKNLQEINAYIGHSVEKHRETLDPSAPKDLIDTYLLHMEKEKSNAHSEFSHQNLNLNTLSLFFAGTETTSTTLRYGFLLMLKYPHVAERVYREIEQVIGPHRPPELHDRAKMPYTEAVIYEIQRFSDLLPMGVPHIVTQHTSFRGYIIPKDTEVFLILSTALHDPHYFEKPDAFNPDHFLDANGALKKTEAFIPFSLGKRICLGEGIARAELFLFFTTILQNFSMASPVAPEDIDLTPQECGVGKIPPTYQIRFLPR
Procedure: (§1) Human liver microsomes were prepared and pooled from ten human livers (HL20–24,28–32) as previously described. Human liver samples were obtained from the University Hospital of Oulu as surplus tissue from cadaver kidney transplant donors. The collection of surplus tissue was approved by the Ethics Committee of the Medical Faculty of the University of Oulu, Finland. All donors were Caucasians ranging in age from 21 to 62 years; four were female and six were male. Detailed information on each donor has been published previously. Protein concentrations were measured using the Bradford method.
(§2) In vitro inhibition of CYP isoforms was first assessed using the N-in-one approach (also called the cocktail approach). CYP-selective substrates and reactions are listed in Table 1; concentrations were roughly at or below the respective Michaelis-Menten coefficients. […] A Micromass LCT time-of-flight high-resolution mass spectrometer (Micromass Ltd., Manchester, UK) equipped with a Z-spray electrospray ionization source was used for the monitoring of CYP-selective reactions. Integrated mass chromatogram peak areas were normalized versus internal standards before comparing metabolites in different preparations. More details of the assay are available in previous publications.
(§3) Dixon, Lineweaver-Burk, Hanes, and Hofstee plots were used for the analysis of the type of inhibition.

CYP2C19 = CYP2C19 (Homo sapiens, UniProt P33261); settings: for IC50: human liver microsomes, probe 2 μM
Procedure: as §1, §2, §3

CYP1A2 = molecular target: T2, CYP1A2 (Homo sapiens, UniProt P05177)
T2 sequence (P05177 1-516): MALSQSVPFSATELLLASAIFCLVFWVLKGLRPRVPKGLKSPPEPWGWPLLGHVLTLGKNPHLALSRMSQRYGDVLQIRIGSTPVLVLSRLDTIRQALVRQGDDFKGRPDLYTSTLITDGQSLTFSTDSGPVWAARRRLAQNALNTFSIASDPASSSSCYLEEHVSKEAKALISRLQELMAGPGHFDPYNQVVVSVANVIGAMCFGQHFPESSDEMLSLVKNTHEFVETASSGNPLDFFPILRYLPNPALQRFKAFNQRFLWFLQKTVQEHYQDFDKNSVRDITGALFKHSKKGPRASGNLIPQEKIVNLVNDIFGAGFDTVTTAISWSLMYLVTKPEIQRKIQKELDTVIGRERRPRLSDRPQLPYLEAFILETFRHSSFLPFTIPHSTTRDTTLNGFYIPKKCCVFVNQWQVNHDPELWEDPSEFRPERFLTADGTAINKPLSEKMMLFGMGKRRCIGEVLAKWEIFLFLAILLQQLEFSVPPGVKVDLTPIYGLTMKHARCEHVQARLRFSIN
Procedure: as §1, §2

Chain of CYP2C19 (P33261 whole entry): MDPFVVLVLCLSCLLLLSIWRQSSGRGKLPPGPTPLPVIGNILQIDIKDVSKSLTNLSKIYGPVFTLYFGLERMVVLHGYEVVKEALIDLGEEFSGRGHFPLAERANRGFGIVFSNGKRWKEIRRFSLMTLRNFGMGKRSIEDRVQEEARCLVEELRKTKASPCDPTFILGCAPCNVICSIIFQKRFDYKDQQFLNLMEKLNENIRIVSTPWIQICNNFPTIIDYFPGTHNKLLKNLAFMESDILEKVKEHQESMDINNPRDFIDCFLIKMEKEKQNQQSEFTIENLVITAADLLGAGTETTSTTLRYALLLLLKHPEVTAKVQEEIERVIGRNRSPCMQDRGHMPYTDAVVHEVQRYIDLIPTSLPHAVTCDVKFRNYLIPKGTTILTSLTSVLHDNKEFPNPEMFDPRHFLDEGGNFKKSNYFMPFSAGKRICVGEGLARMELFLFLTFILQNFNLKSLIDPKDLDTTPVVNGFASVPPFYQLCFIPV

OCCOc1ccc(/C(=C(/CCCl)c2ccccc2)c2ccccc2)cc1 [Ospemifene]
IC50 (CYP2B6): 7.8 µM
Type of inhibition (CYP2B6; results not shown): competitive
IC50 (CYP2C19; IC50, Omeprazole 5-hydroxylation): 22.5 µM
IC50 (CYP2C19; IC50, Omeprazole demethylation): 47.2 µM
Type of inhibition (CYP2C19; results not shown): noncompetitive
IC50 (CYP1A2): > 100 µM
